Assay: xn = mol fraction of the nth substance listed
Settings: 101 kPa

CC(=O)[O-].[NH4+] + CC(=O)[O-].CC[n+]1ccn(C)c1
Settings	electrical conductivity [S/m]	viscosity [mPa·s]
298.15 K, x1 = 0.0503	0.255	153
298.15 K, x1 = 0.0999	0.226	186
298.15 K, x1 = 0.1703	0.181	261
298.15 K, x1 = 0.2498	0.146	389
298.15 K, x1 = 0.328	0.114	572
303.15 K, x1 = 0.0503	0.337	111.7
303.15 K, x1 = 0.0999	0.299	134.7
303.15 K, x1 = 0.1703	0.242	186
303.15 K, x1 = 0.2498	0.199	271
303.15 K, x1 = 0.328	0.158	390
303.15 K, x1 = 0.4491	0.106	673
308.15 K, x1 = 0.0503	0.431	83.9
308.15 K, x1 = 0.0999	0.389	100.1
308.15 K, x1 = 0.1703	0.319	135.5
308.15 K, x1 = 0.2498	0.266	194
313.15 K, x1 = 0.0503	0.542	64.6
313.15 K, x1 = 0.2498	0.349	142.3
313.15 K, x1 = 0.4491	0.201	321
318.15 K, x1 = 0.0503	0.671	50.7
318.15 K, x1 = 0.0999	0.617	59.1
318.15 K, x1 = 0.1703	0.519	77.2
318.15 K, x1 = 0.4491	0.267	230
323.15 K, x1 = 0.0503	0.862	40.5
323.15 K, x1 = 0.0999	0.796	46.6
323.15 K, x1 = 0.1703	0.641	59.9
323.15 K, x1 = 0.2498	0.562	81.3
323.15 K, x1 = 0.328	0.471	108.4
323.15 K, x1 = 0.4491	0.347	169

CC(=O)[O-].[Na+] + CC(=O)[O-].CC[n+]1ccn(C)c1
Settings	electrical conductivity, x1 = 0.0501 [S/m]	electrical conductivity, x1 = 0.1001 [S/m]	electrical conductivity, x1 = 0.1605 [S/m]	viscosity, x1 = 0.0501 [mPa·s]	viscosity, x1 = 0.1001 [mPa·s]	viscosity, x1 = 0.1605 [mPa·s]
298.15 K	0.232	0.189	0.152	160	205	300
303.15 K	0.305	–	0.207	117.1	–	210
308.15 K	0.392	0.327	0.272	88	109.3	153
313.15 K	0.491	0.416	0.352	67.7	83.1	113.7
318.15 K	0.606	0.518	0.442	53.2	64.7	86.9
323.15 K	0.734	0.632	0.537	42.7	51.3	67.9

CCS(=O)(=O)[O-].[NH4+] + CC(=O)[O-].CC[n+]1ccn(C)c1
Settings	electrical conductivity, x1 = 0.05 [S/m]	electrical conductivity, x1 = 0.0999 [S/m]	electrical conductivity, x1 = 0.1701 [S/m]	viscosity, x1 = 0.05 [mPa·s]	viscosity, x1 = 0.0999 [mPa·s]	viscosity, x1 = 0.1701 [mPa·s]
298.15 K	0.247	0.2	0.164	157	210	299
303.15 K	0.323	0.266	0.222	115	151	210
308.15 K	0.415	0.346	0.293	86.3	111.2	151
313.15 K	0.522	0.442	–	66.2	83.9	–
318.15 K	–	0.553	0.481	–	64.6	84.7
323.15 K	0.775	–	–	41.3	–	–

N#C[S-].[Na+] + CC(=O)[O-].CC[n+]1ccn(C)c1
x1 = 0.0502
Settings	electrical conductivity [S/m]	viscosity [mPa·s]
298.15 K	0.242	150
303.15 K	0.316	110.4
308.15 K	0.404	83.3
313.15 K	0.504	64.4
318.15 K	0.618	50.9
323.15 K	0.734	40.9

[Cl-].[NH4+] + CC(=O)[O-].CC[n+]1ccn(C)c1
Settings	electrical conductivity, x1 = 0.0505 [S/m]	electrical conductivity, x1 = 0.0999 [S/m]	electrical conductivity, x1 = 0.1702 [S/m]	electrical conductivity, x1 = 0.25 [S/m]	electrical conductivity, x1 = 0.3297 [S/m]	viscosity, x1 = 0.0505 [mPa·s]	viscosity, x1 = 0.0999 [mPa·s]	viscosity, x1 = 0.1702 [mPa·s]	viscosity, x1 = 0.25 [mPa·s]	viscosity, x1 = 0.3297 [mPa·s]
298.15 K	–	0.19	0.139	0.0911	0.0567	–	236	405	775	1608
303.15 K	–	0.255	0.192	0.13	0.0843	–	168	278	511	1040.8
308.15 K	0.398	0.333	0.259	0.179	0.121	92.9	122.6	196	348	693
313.15 K	0.501	–	–	0.242	0.169	71	–	–	245	478
318.15 K	–	0.537	0.439	0.32	0.23	–	70.2	106.2	177	339
323.15 K	–	0.661	0.552	0.414	0.305	–	54.7	80.6	130.5	246

CC(=O)[O-].CC[n+]1ccn(C)c1 + CC(=O)[O-].[NH4+]
x2 = 0
Settings	electrical conductivity [S/m]	viscosity [mPa·s]
298.15 K	0.287	126.3
303.15 K	0.374	93.6
308.15 K	0.473	71.3
313.15 K	0.587	55.5
318.15 K	0.76	44.2

CC(=O)[O-].CC[n+]1ccn(C)c1 + CC(=O)[O-].[Na+]
x2 = 0
Settings	electrical conductivity [S/m]	viscosity [mPa·s]
298.15 K	0.287	126.3
303.15 K	0.374	93.6
308.15 K	0.473	71.3
313.15 K	0.587	55.5
318.15 K	0.76	44.2
323.15 K	0.918	35.7

CC(=O)[O-].CC[n+]1ccn(C)c1 + CCS(=O)(=O)[O-].[NH4+]
x2 = 0
Settings	electrical conductivity [S/m]	viscosity [mPa·s]
298.15 K	0.287	126.3
308.15 K	0.473	71.3
313.15 K	0.587	55.5
323.15 K	0.918	35.7

CC(=O)[O-].CC[n+]1ccn(C)c1 + N#C[S-].[Na+]
x2 = 0
Settings	electrical conductivity [S/m]	viscosity [mPa·s]
298.15 K	0.287	126.3
308.15 K	0.473	71.3
318.15 K	0.76	44.2
323.15 K	0.918	35.7

CC(=O)[O-].CC[n+]1ccn(C)c1 + [Cl-].[NH4+]
x2 = 0
Settings	electrical conductivity [S/m]	viscosity [mPa·s]
298.15 K	0.287	126.3
303.15 K	0.374	93.6
313.15 K	0.587	55.5
323.15 K	0.918	35.7

Source: a compilation of properties of binary mixtures (doi:10.1021/je5008857)
